How the values were obtained:
[1] = Zinc-dependent MR relaxivity in buffered solutions; format: physicochemical; conditions: for zinc-induced change of MR signal in buffered solution: 1 mM Zn^2+, 25 mM Pipes pH 7, T1-weighted 200 μM agent, T2-weighted 500 μM agent with 100 mM KCl; for zinc-induced T2 change at high ionic strength: 100 mM KCl, buffered solution
Method: (§1) MRI samples prepared as described above were arrayed into microtiter plates and placed in a 40-cm-bore Avance 4.7 T MRI scanner (Bruker, Billerica, Mass.). Unused wells were filled with PBS, and imaging was performed on a 2-mm slice through the sample. A spin echo pulse sequence with multiecho acquisition was used. The TR was fixed for every acquisition, and the TE was in defined increments. For example, for TR=100 ms, TE varied from 10 to 80 ms, with a 10-ms increment. To adjust further the weight between T1 and T2, various TRs were applied and the TE increment was changed accordingly, if necessary. Data matrices of 512×128 points were acquired and zero-filled to 256 points in the second (phase encoding) dimension. Images were reconstructed and analyzed by using custom routines running in Matlab (Mathworks, Natick, Mass.).
Insertion of a paramagnetic manganese(III) ion into the porphyrin core of compound 1 rendered the resulting (DPA-C2)2-TPPS3Mn(III) complex (compound 2) an MRI contrast agent. The properties of compound 2 were investigated by using a spin echo pulse sequence to collect images at several echo times (TEs) in parallel. In some experiments, the repetition times (TRs) were varied so that both T1 and T2 could be evaluated. Multiwell plates were used for sample preparation, which allowed several conditions to be investigated in parallel. The well-studied MRI T1 agent, Mn-TPPS4, which contains a similar porphyrin platform as compound 2 but lacks a zinc-binding unit, was chosen as a reference compound.
The zinc-dependent MR relaxivity of compound 2 was first investigated in buffered solutions. Solutions of compound 2 or Mn-TPPS4 in 25 mM Pipes buffer at pH 7.0 were arrayed in microtiter plates. A spin echo pulse sequence was used to acquire an MRI image. […] Addition of 1 mM ZnCl2 to a 200 μM solution of compound 2 dissolved in 25 mM Pipes buffer at pH 7 slowed down the T1 relaxation. […] The T1 values of zinc-free and zinc-saturated solutions were determined at various concentrations of compound 2, from which T1 relaxivity (R1) values could be deduced.
The surrounding wells (not shown) were filled with PBS to maintain a homogenous magnetic field to mark the positions of the samples.
The zinc-induced T2 enhancement depended on the total concentration of compound 2.

[2] = system: intracellular zinc in HEK-293 cells; test: Cellular MR imaging of intracellular zinc, T1 and T2 of cell pellets; format: cell-based; conditions: for T2 of cell pellet, zinc-treated samples: then 200 μM Zn^2+
Method: as §1
To investigate zinc-induced relaxivity changes in compound 2 inside cells, cell pellets were prepared with and without exogenously introduced zinc, and their MR images were recorded and compared. The HEK-293 cell suspension was divided equally into two flasks after a 24-h treatment with 100 μM of compound 2 or Mn-TPPS4. A 200-μM portion of zinc pyrithione was then added to one of the samples and incubated for an additional 10 min. As in the solution studies, comparisons were made by using Mn-TPPS4 as a reference compound. In addition, an untreated cell sample was prepared as a control. The cell suspensions were pelleted by centrifugation, washed, and transferred into a multiwell plate for MRI analysis. A spin echo pulse sequence was used to acquire MRI images.
T1 and T2 were determined by a series of MR images with varied TR or TE, respectively. The values reported are the average from three separate experiments with standard deviations as indicated by the horizontal bars.

[3] = Fluorescence metal ion selectivity; conditions: 100 μM metal ion, 5 μM compound, 50 mM Hepes/100 mM KCl, pH 7.0, excitation 418 nm
Method: Millipore water was used to prepare all aqueous solutions. All spectroscopic measurements were performed in buffered solutions containing 50 mM of the buffering species and 100 mM KCl adjusted to the desired pH. A glass electrode (Orion, Boston, Mass.), calibrated before each use, was used to determine solution pH. Solutions of Zn^2+ were prepared from 100 mM stocks of ZnCl2 in water. Absorption spectra were recorded on a 8453A diode array spectrophotometer (Hewlett-Packard, Palo Alto, Calif.) or a Cary 50 Bio UV-visible spectrophotometer (Varian, Palo Alto, Calif.), and fluorescence spectra were obtained with a Quanta Master 4 L-format scanning spectrofluorimeter (Photon Technology International, Lawrenceville, N.J.) equipped with an LPS-220B 75-W xenon lamp and power supply, an A-1010B lamp housing with integrated igniter, a switchable 814 photon-counting/analog photomultiplier detection unit, and a MD-5020 motor driver. Samples for absorption and emission measurements were held in 1×1-cm quartz cuvettes (3.5 mL volume; Stama, Atascadero, Calif.). […] Quantum yields were determined by reference to TPPS4 [0.16 in pH=7 aqueous solution]. […]
Even large excesses of Na^+, K^+, Ca^2+, and Mg^2+, which are biologically relevant, potentially competing, mobile metal ions, barely perturb the fluorescence of the zinc-free and zinc-bound forms of compound 1.

Fluorescence pH profile = format: physicochemical; conditions: pH 10.1 to pH 4.5; 5 μM in 100 mM KCl; excitation 416 nm, integrated 550 to 800 nm
Method: The pH-sensitivity of compound 1 was then studied. In some cases, it may be advantageous to reduce fluorescence turn-on by protonation for fluorescent zinc(II) sensors, as protonation can diminish the sensitivity of the sensor to zinc by increasing the background signal intensity. […] The pH values of the solution were adjusted by adding an appropriate volume of HCl or KOH stock solution. The fluorescence spectrum was measured upon excitation at 416 nm, and the fluorescence intensity was integrated from 550 to 800 nm.

[4] = system: intracellular Zn^2+ in HEK-293 cells; test: Intracellular zinc imaging by fluorescence microscopy; format: cell-based; conditions: 5 μM 24 h, 40 μM Zn^2+/pyrithione 10 min
Method: The cell fluorescence imaging experiments were performed with an Axiovert 200M inverted epifluorescence microscope (Zeiss, Thomwood, N.Y.) equipped with an EM-CCD digital camera C9100 (Hamamatsu Hamamatsu City, Japan) and a MS200 XY Piezo Z stage (Applied Scientific Instruments, Eugene, Oreg.). An X-Cite 120 metal-halide lamp (EXFO, Quebec, Canada) was used as the light source. The fluorescence images were obtained by using a x63 oil immersion objective lenses and a customized optical filter (exciter: D425/50; emitter: E6001p; beamsplitter: 460dcxr; Chroma Technology, Rockingham, Vt.). The microscope was operated with Volocity software (Improvision, Lexington, Mass.).
Fixed cells were investigated by fluorescence imaging using a customized optical filter (exciter: D425/50; emitter: E6001p; beamsplitter: 460dcxr), which was designed to match the excitation and emission profiles of compound 1. The cell nuclei were costained with the blue fluorescent dye Hoechst 33258 (0.4 μM). The HEK-293 cells were incubated with 5 μM of compound 1 for 24 h before fixing. […] The insets show the corresponding bright-field images (Scale bars: 25 μm).

all cell lines tested = test: Membrane permeability in cell lines; format: cell-based
Method: Suspension cultures of HEK-293 enabled production of a sizeable cell pellet, which was then plated as an adherent monolayer for fluorescence imaging studies. The monolayer cultures were subcultured five times after the initial plating, grown to 70% confluence on glass cover slips and treated with compound 1 for fluorescence imaging. The cytotoxicity of compound 1 was evaluated in these adherent HEK-293 cells by incubating them with 5 μM of compound 1 for 24 h.

[5] = Absorption spectrum in buffered neutral aqueous solution; format: physicochemical; conditions: Soret band centered at 416 nm; 50 mM Hepes/100 mM KCl, pH 7.0
Method: Millipore water was used to prepare all aqueous solutions. All spectroscopic measurements were performed in buffered solutions containing 50 mM of the buffering species and 100 mM KCl adjusted to the desired pH. A glass electrode (Orion, Boston, Mass.), calibrated before each use, was used to determine solution pH. Solutions of Zn^2+ were prepared from 100 mM stocks of ZnCl2 in water. Absorption spectra were recorded on a 8453A diode array spectrophotometer (Hewlett-Packard, Palo Alto, Calif.) or a Cary 50 Bio UV-visible spectrophotometer (Varian, Palo Alto, Calif.), and fluorescence spectra were obtained with a Quanta Master 4 L-format scanning spectrofluorimeter (Photon Technology International, Lawrenceville, N.J.) equipped with an LPS-220B 75-W xenon lamp and power supply, an A-1010B lamp housing with integrated igniter, a switchable 814 photon-counting/analog photomultiplier detection unit, and a MD-5020 motor driver. Samples for absorption and emission measurements were held in 1×1-cm quartz cuvettes (3.5 mL volume; Stama, Atascadero, Calif.). […] Quantum yields were determined by reference to TPPS4 [0.16 in pH=7 aqueous solution].
The spectroscopic properties of compound 1 were evaluated in buffered neutral aqueous solution (50 mM Hepes/100 mM KCl, pH 7.0). […] Excitation was provided at 418 nm for the emission spectrum, and emission was detected at 648 nm for the excitation spectrum. […]

HEK-293 cells [6] = test: Subcellular localization by manganese atomic absorption spectroscopy of cell fractions; format: cell-based
Method: Cell monolayers were grown in 75-cm plates to 70% confluence and treated with 100 μM of either 2 or Mn-TPPS4, followed by incubation for 24 h. All fractionation steps were performed at 4° C. After twice pelleting by centrifugation (500×g) and washing with PBS, cells were lysed in a low-salt buffer and incubated on ice for 15 min. After centrifugation (420×g, 5 min) the pellet was resuspended in two packed-cell volumes of lysis buffer with 20 strokes of a 27-gauge syringe needle. After centrifugation (11,000×g, 20 min), the supernatant was retained (cytosolic fraction), and the nuclei were lysed in 0.42 M salt with 10 strokes of a 17-gauge syringe needle. After centrifugation (20,000×g, 5 min), the supernatant was obtained as the nuclear fraction.
Manganese atomic absorption spectroscopic analyses of samples were performed on an Aanalyst 300 instrument equipped with an HGA-800 graphite furnace (PerkinElmer, Wellesley, Mass.). Pyrolysis was performed at 1,400° C. for 30 s, and atomization was performed at 2,200° C. for 5 s.
To confirm the membrane permeability and further investigate the subcellular localization of compound 2, the cells were lysed, and nuclear and cytosolic fractions were extracted and analyzed by atomic absorption spectroscopy (AAS).

HEK-293 cells [7] = test: Cytotoxicity in HEK-293 suspension cells, cell density; format: cell-based; conditions: 100 μM, 24 h
[8] = HEK-293, 100 μM 24 h, no exogenous zinc
[9] = HEK-293, 100 μM 24 h, then 200 μM zinc pyrithione 10 min

Row | Molecule | zinc-induced change of MR signal in buffered solution [1] | zinc-induced T2 change at high ionic strength [1] | T1 of cell pellet, absence of zinc [2, 8] [s] | T2 of cell pellet, non zinc-treated samples [2, 8] [ms] | T2 of cell pellet, zinc-treated samples ([2]; HEK-293, 100 μM 24 h) [ms] | T1 of cell pellet, presence of zinc [2, 9] [s] | selectivity of fluorescence turn-on for Zn^2+ over other metal ions [3] | fluorescence increase on acidification (Fluorescence pH profile) | change of intracellular red fluorescence upon addition of Zn^2+ [4] | membrane permeability (all cell lines tested) | extinction coefficient (ε) of Soret band [5] | T1 of cell pellet, zinc-free sample [2, 8] [ms] | T1 of cell pellet, zinc-containing sample [2, 9] [ms] | cell membrane permeability from relative increase in T1-weighted MR signal ([2]; HEK-293 cells, 100 μM, 24 h, TR=100 ms, TE=10 ms) | cell membrane permeability (HEK-293 cells [6]; AAS of lysed cell fractions) | Mn in cytosol (AAS) (HEK-293 cells [6]; cells treated with 100 μM, 24 h, cytosolic fraction) [mg Mn/liter] | Mn in nuclear fraction (AAS) (HEK-293 cells [6]; cells treated with 100 μM, 24 h, nuclear fraction) [mg Mn/liter] | cytotoxicity (cell density vs untreated control cells) (HEK-293 cells [7])
1 | O=S(=O)([O-])c1ccc(-c2c3nc(c(-c4ccc(S(=O)(=O)[O-])cc4)c4ccc([n-]4)c(-c4ccc(S(=O)(=O)[O-])cc4)c4ccc([n-]4)c(-c4ccc(S(=O)(=O)[O-])cc4)c4nc2C=C4)C=C3)cc1.[Mn+3] [Mn-TPPS4, reference compound] | almost no change | no zinc-induced T2 change | 1.1 | 107 | 94 | 1.0 | – | – | – | – | – | – | – | – | – | – | – | –
2 | O=S(=O)(O)c1ccc(-c2c3nc(c(-c4ccc(S(=O)(=O)O)cc4)c4ccc([nH]4)c(-c4c(NCCN(Cc5ccccn5)Cc5ccccn5)cccc4NCCN(Cc4ccccn4)Cc4ccccn4)c4nc(c(-c5ccc(S(=O)(=O)O)cc5)c5ccc2[nH]5)C=C4)C=C3)cc1 [compound 1, (DPA-C2)2-TPPS3] | – | – | – | – | – | – | selective for Zn^2+ over many other monovalent and divalent metal ions | less than a factor of two | significant increase in the red fluorescence intensity | membrane-permeable | 250,700 M^−1·cm^−1 | – | – | – | – | – | – | –
3 | (DPA-C2)2-Mn(III)TPPS3 [compound 2] | lowers the MR signal intensity | zinc-induced enhancement of T2 relaxation | – | 69 | 25.0 | – | – | – | – | – | – | 510 | 80 | greater cell membrane permeability than Mn-TPPS4 | cell membrane-permeable | 0.78 | 5.62 | little cytoxicity

— patent US8133474B2, “Sensors for fluorescence and magnetic resonance imaging” (Massachusetts Institute of Technology, priority 2006, dated 2012)
